# Data as given in US9738731B2, “Lactic acid bacterium growth enhancer, regulatory T-cell number increasing agent, method of enhancing growth of lactic acid bacterium, method of increasing number of regulatory T-cells, method of evaluating regulatory T-cell number increasing effect, and method of evaluating lactic acid growth …” (TOKYO UNIVERSITY OF SCIENCE FOUNDATION, priority 2013, dated 2017).
# Tested on: total cLP cells from WT mice
# Assay: Co-culture of total cLP cells with Lactobacillus strains, gene expression
# Type: cell-based, mouse
# Settings: 1×10^5 cLP cells with 1×10^6 CFU, 12 h
# Description: FIG. 7C: 1×10^5 total cLP cells from WT mice were co-cultured with 1×10^6 CFU (/well) L. murinus, L. animalis, L. salivarius, L. johnsonii or L. reuteri for 12 h. Cytokine gene expression was determined by real-time RT-PCR. Data in (FIGS. 7A-C) are representative of two independent experiments.
# Total RNA was extracted with Mammalian Total RNA Miniprep kit (Sigma-Aldrich, St. Louis, U.S.) according to the manufacturer's instructions. RNA was denatured in the presence of an oligo dT primer and then reverse transcribed with the High Capacity cDNA Reverse Transcription Kit (Applied Biosystems, San Francisco, U.S.). Quantitative real-time RT-PCRs were performed with a SYBR Green qPCR kit (Carlsbad, U.S.) and an iCycler system (Bio-Rad, Hercules, U.S.) with the sets of primers described in Table 1, and the expression of each mRNA encoding cytokine was normalized with gapdh expression level.
substance,measurement,value
Lactobacillus reuteri,"expression of these genes (Tgfb, Il10, Foxp3, Rorc)",did not modify
